Data as given in the OPERA property sets (Mansouri et al. 2018).

Conditions: not given

Point of comparison: `Cl.NCc1ccccc1`, melting point 262 °C. Against it:
- Cc1cnccc1N — lower, 108 °C
- CC(=O)Oc1cccc2c1C(=O)c1c(OC(C)=O)cc(C(=O)O)cc1C2=O — lower, 218 °C
- CS(=O)(=O)O.Cc1ccc(N(CC2=NCCN2)c2cccc(O)c2)cc1 — lower, 181 °C
- CCOC(=O)N1C(=O)c2ccccc2C1=O — lower, 91 °C
- O=C(O)[C@@]1(O)CC(O)[C@H](O)[C@H](O)C1 (some centres undefined) — lower, 162 °C
- NCCCCCCCCCCC(=O)O — lower, 191 °C
- C#CCCC(C)C — lower, -125 °C
- CCCCOCCOC(C)=O — lower, -63 °C
- Nc1ccccc1Nc1ccccc1 — lower, 79.5 °C
- O=C1c2cc([N+](=O)[O-])ccc2-c2ccc([N+](=O)[O-])cc21 — higher, 294 °C
- IC(I)I — lower, 119 °C
- CCCCOC(=O)c1ccc([N+](=O)[O-])cc1 — lower, 35.5 °C
- C=CCCCCCCCCCCCCCCCCCC — lower, 28.5 °C
- O=C(O)c1cc(F)c(F)c(F)c1F — lower, 86 °C
- Fc1c(F)c(F)c(I)c(F)c1F — lower, -29 °C
- O=C=S — lower, -139 °C
- Clc1cccc(Br)c1Cl — lower, 60 °C
- c1ccc(Cc2ccc(-c3ccccc3)cc2)cc1 — lower, 85 °C
- Nc1ccc([N+](=O)[O-])cc1C(=O)c1ccccc1 — lower, 163 °C
- COC(=O)C=Cc1ccccc1 — lower, 36 °C
- Cc1ccc2[nH]cnc2c1 — lower, 116 °C
- CCCCCCCCCCCCCCCCCC(=O)Nc1ccc(O)cc1 — lower, 134 °C
- CNc1cnn(-c2cccc(C(F)(F)F)c2)c(=O)c1Cl — lower, 184 °C
- O=C1OC2(c3ccccc31)c1ccc(O)c(Br)c1Oc1c2ccc(O)c1Br — higher, 285 °C
- Cc1cc[nH]n1 — lower, 36.5 °C
- Cc1[nH]c(=O)n(C(C)C)c(=O)c1Br — lower, 158 °C
- CC(C)(O)CCSc1ccc(S(N)(=O)=O)cc1 — lower, 140 °C
- CN1CCC2=C(C1)C(c1ccccc1)c1ccccc12 (centres undefined) — lower, 91 °C
- CC(C)(O)CCc1ccccc1 — lower, 24.5 °C
- CN(C(=O)C(Cl)Cl)c1ccc(O)cc1 — lower, 175 °C
- C1CCCCCCCCCCCCCC1 — lower, 61.3 °C
- CCC(CC)Nc1c([N+](=O)[O-])cc(C)c(C)c1[N+](=O)[O-] — lower, 56 °C
- NC(=O)c1ccncc1 — lower, 156 °C
- Oc1ccccc1C=NCCN=Cc1ccccc1O — lower, 128 °C
- CC/C(=C(\c1ccccc1)c1ccc(OCCN(C)C)cc1)c1ccccc1 — lower, 97 °C
- c1ccc2cc3cc4cc5ccccc5cc4cc3cc2c1 — lower, 257 °C
- CCCCCCCCCC[C@H](O)CC — lower, 32 °C
- Cc1ccc(S(=O)(=O)c2ccc(C)cc2)cc1 — lower, 159 °C
- ClCCBr — lower, -16.7 °C
- CCCCCCCCCCCCCCCCCC(N)=O — lower, 109 °C
- COc1cccc(N(C)C(=S)Oc2cccc(C(C)(C)C)c2)n1 — lower, 86 °C
- CCCCCCCCOC(=O)CCCCC — lower, -28 °C
- O=C1NCNC1(c1ccccc1)c1ccccc1 — lower, 183 °C
- Oc1ccc([C@H](O)[C@H]2CCCCN2)cc1O — lower, 204 °C
- COc1cc(Cl)c(Cl)cc1Cl — lower, 77.5 °C
- CC(=O)O[C@]1(C(C)=O)CC[C@H]2[C@@H]3C=C(Cl)C4=CC(=O)C=C[C@]4(C)[C@H]3CC[C@@]21C — lower, 168 °C
- CN(C)c1ccc(C=Cc2ccccc2)cc1 — lower, 150 °C

Point of comparison: `Fc1c(F)c(F)c(I)c(F)c1F`, boiling point 166 °C. Against it:
- Fc1ccc(F)c(F)c1 — lower, 90 °C
- C#CCCC(C)C — lower, 92 °C
- CCCCOCCOC(C)=O — higher, 192 °C
- CCNCc1ccccc1 — higher, 194 °C
- CCOC(C)C — lower, 54.1 °C
- Nc1ccccc1Nc1ccccc1 — higher, 313 °C
- ClSC(Cl)(Cl)Cl — lower, 148 °C
- IC(I)I — higher, 218 °C
- C=CCCCCCCCCCCCCCCCCCC — higher, 341 °C
- COCc1ccco1 — lower, 132 °C
- COc1ccccc1CN — higher, 229 °C
- O=C=S — lower, -50 °C
- Clc1cccc(Br)c1Cl — higher, 245 °C
- COC(=O)C=Cc1ccccc1 — higher, 260 °C
- Nc1ccc(Oc2ccc(N)cc2)cc1 — higher, 350 °C
- COCC(C)OC(C)=O (centres undefined) — lower, 146 °C
- Cc1cc[nH]n1 — higher, 204 °C
- CCC(CC)Nc1c([N+](=O)[O-])cc(C)c(C)c1[N+](=O)[O-] — higher, 330 °C
- Cc1ccc(S(=O)(=O)c2ccc(C)cc2)cc1 — higher, 406 °C
- ClCCBr — lower, 107 °C
- CCCCCCCCOC(=O)CCCCC — higher, 275 °C
- CCCOCC(C)C — lower, 107 °C
- COc1cc(Cl)c(Cl)cc1Cl — higher, 254 °C

Point of comparison: `Clc1cccc(-c2cc(Cl)c(Cl)cc2Cl)c1`, log10 Henry constant (atm·m³/mol) -4. Against it:
- CCCCOCCOC(C)=O — lower, -5.26
- ClCCBr — higher, -3.04

Point of comparison: `ClCCBr`, log10 vapour pressure (mmHg) 1.52. Against it:
- CCCCOCCOC(C)=O — lower, -0.426
- ClSC(Cl)(Cl)Cl — lower, 0.477
- C=CCCCCCCCCCCCCCCCCCC — lower, -4.98
- O=C=S — higher, 3.97
- COC(=O)C=Cc1ccccc1 — lower, -1.46
- CNc1cnn(-c2cccc(C(F)(F)F)c2)c(=O)c1Cl — lower, -7.54
- COCC(C)OC(C)=O (centres undefined) — lower, 0.593
- CCC(CC)Nc1c([N+](=O)[O-])cc(C)c(C)c1[N+](=O)[O-] — lower, -4.52

For `OCCNCO`, the ready biodegradability was “readily biodegradable”.
With `CC(O)(CCO)CCO` the ready biodegradability was “not readily biodegradable”.
With `Nc1ccc(Oc2ccc(N)cc2)cc1` the ready biodegradability was “not readily biodegradable”.
In the case of `c1ccc2cc3cc4cc5ccccc5cc4cc3cc2c1`, the ready biodegradability was “not readily biodegradable”.

Point of comparison: `O=C(O)c1c(Cl)ccc(Cl)c1O`, log10 Koc (L/kg) 2.3. Against it:
- COC(=O)Nc1ccccc1 — lower, 1.73
- OCc1c2ccccc2cc2ccccc12 — higher, 3.61
- CNc1cnn(-c2cccc(C(F)(F)F)c2)c(=O)c1Cl — higher, 3.28
- COCC(C)OC(C)=O (centres undefined) — lower, 0.36
- Cc1[nH]c(=O)n(C(C)C)c(=O)c1Br — within 0.2 log units, 2.11
- CCC(CC)Nc1c([N+](=O)[O-])cc(C)c(C)c1[N+](=O)[O-] — higher, 3.7

`Clc1ccc2ccc(Cl)c(Cl)c2c1Cl` showed a log10 Koa of 8.65.

Same assay, conditions: fish

Point of comparison: `Cc1cc2cccc(CCCC(C)C)c2cc1C`, log10 biotransformation half-life (days) 0.06. Against it:
- COc1cccc([N+](=O)[O-])c1 — lower, -1.04
- CC(CC(C)(C)C)CC(C)(C)CC(C)(C)C (centres undefined) — higher, 1.81

Point of comparison: `CC(CC(C)(C)C)CC(C)(C)CC(C)(C)C` (centres undefined), log10 BCF 3.82. Against it:
- COc1cccc([N+](=O)[O-])c1 — lower, 0.78
- COc1cc(Oc2ccc(Cl)cc2Cl)ccc1[N+](=O)[O-] — lower, 3.59
- CCOP(=S)(S)OCC — lower, 0.7
- COc1cc(Cl)c(Cl)cc1Cl — lower, 2.81
